Data set [1] concerns murine microglial cell line BV-2. Nature of the data set: LPS-induced neuroinflammation in BV-2 microglial cells (cytokines by MSD V-PLEX, MTT). The format is cell-based, mouse.
Procedure: Lipopolysaccharide (LPS)-Induced Neuroinflammation: The murine microglial cell line BV-2 was cultivated in DMEM medium supplemented with 10% FCS, 1% penicillin/streptomycin and 2 mM L-glutamine (culture medium). For LPS stimulation assay, 5000 BV-2 cells per well (uncoated 96 well plates) were plated out and the medium was changed to treatment medium (DMEM, 5% FCS, 2 mM L-glutamine). After changing cells to treatment medium, drug compounds were administered 1 hour before LPS stimulation (Sigma-Aldrich; L6529; 1 mg/ml stock in ddH2O, final concentration in well: 100 ng/ml (dilutions in medium)). Cells treated with vehicle, cells treated with LPS alone, as well as cells treated with LPS plus reference item (dexamethasone 10 μM, Sigma D4902) served as controls. After 24 h of stimulation, cell supernatants were collected for the cytokine measurement (V-PLEX Proinflammatory Panel 1 Mouse Kit, K15048D, Mesoscale) and cells were subjected to MTT assay.
MTT Assay: MTT solution was added to each well in a final concentration of 0.5 mg/mL. After 2 h, the MTT containing medium was aspirated. Cells were lysed in 3% SDS and the formazan crystals were dissolved in isopropanol/HCl. Optical density was measured with a Cytation 5 (Biotek) multimode reader at wavelength 570 nm. Values were calculated as percent of control values (vehicle control or lesion control).
After changing cells to treatment medium, HCQ (0.25 μM, 2.5 μM and 25 μM) was applied 1 hour before LPS stimulation (Sigma-Aldrich; L6529; 1 mg/ml stock in ddH2O, final concentration in well: 100 ng/ml (dilutions in medium)).
A further data set deals with BV-2 cells. Description: Aβ1-42 clearance Protonex assay. The format is cell-based, mouse. The settings on record: 25 μM HCQ pretreatment, Protonex Green label. The method, then:
Aβ1-42 clearance-Protonex assay: For Abeta (Aβ1-42) clearance Protonex assay, 5000 BV-2 cells per well (uncoated 96 well plates) were plated out. After changing cells to treatment medium, HCQ (25 μM) was applied 1 hour before stimulation with Protonex™ Green 500, SE (21216, AAT Bioquest) labelled Aβ1-42 (Bachem 4061966; final concentration in well: 200 ng/ml (dilutions in medium)). Cells treated with vehicle and cells treated with Aβ1-42 alone served as controls. After 3 h of Aβ1-42 stimulation, cells were imaged on Cytation 5 multimode reader (Biotek) and green fluorescence was measured.

For data set [2], the system named is Alzheimer's disease and related dementia (ADRD) in rheumatoid arthritis patients. Description: Medicare claims cohort study of incident ADRD, HCQ vs methotrexate. Format: in vivo, human. From the text:
The full study protocol for patient-level analysis in Medicare claims was pre-registered on clinicaltrials.gov prior to data analysis (NCT04691505) and contains detailed information on implementation including all codes that were used to identify study variables to allow future replication. The following sections summarize key methodologic details. Data source: Medicare Fee-For-Service claims data from 2007 through 2017 were used. Medicare Part A (hospitalizations), B (medical services), and D (prescription medications) claims are available for research purposes through the Centers for Medicare and Medicaid Services. A signed data use agreement with the CMS was available and the Brigham and Women's Hospital's Institutional Review Board approved this study. Study cohort: A new user, active comparator, observational cohort study design comparing methotrexate to hydroxychloroquine was employed. The patients were required to have continuous enrollment in Medicare parts A, B, and D during the baseline period of 365 days before initiation date of methotrexate or hydroxychloroquine, which was defined as the cohort entry date. Patients were required to have ≥1 diagnosis codes of rheumatoid arthritis during the baseline period but no prior use of any disease modifying antirheumatic treatments. Patients with existing diagnosis of Alzheimer's disease and related dementia (ADRD) any time prior to and including cohort entry date were excluded to focus on incident events. Patients with nursing home admission in 365 days prior to and including cohort entry date also were excluded as medication records for short nursing home stays are unavailable in Medicare claims. Outcome measurement: The endpoint of ADRD was identified based on diagnosis codes, recorded on 1 inpatient claim or 2 outpatient claims, of Alzheimer's disease, vascular dementia, senile, presenile, or unspecified dementia, or dementia in other diseases classified elsewhere. […] Alternative analytic approaches: To accommodate various uncertainties involved in pharmacoepidemiologic investigations focused on ADRD risk, the following alternative analyses were employed. Analysis 1—‘As-treated’ follow-up approach: In this approach, the follow-up started on the day following the cohort entry date and continued until treatment discontinuation or switch (to comparator treatment), insurance disenrollment, death, or administrative endpoint (December 2017). A 90-day ‘grace period’ after the end of the expected days-supply of the most recently filled prescription was considered to define the treatment discontinuation date to accommodate for suboptimal adherence during treatment periods. […] This follow-up approach addresses concerns related to informative censoring if patients discontinue or if physicians de-prescribe the treatments under consideration because of memory problems associated with ADRD, but the diagnosis is not recorded in the electronic healthcare records until after the end of follow-up due to treatment-related censoring. Analysis 3—incorporating a 6-month ‘symptoms to diagnosis’ period: In this approach, an outcome date was assigned that was 6 months before the first recorded ADRD date and excluded last 6 months of follow-up for those who are censored without an event to account for the possibility that ADRD symptoms likely appear some time before a formal diagnosis is recorded in insurance records, which leads to misclassification of ADRD onset. […]

Another data set deals with STAT3 (Mus musculus, UniProt P42227). Description: Western blot of total and phosphorylated STAT3 in mouse embryonic cortical neurons. Format: cell-based. Also noted: hippocampal homogenate samples across four groups; from tissue; host or cells: acute hippocampal slices from WT and APP/PS1 (APPSwe/PS1dE9) mice. Conditions: 50 μM, 48 hours. The method, then: For primary cultures of embryonic cortical neurons, timed-pregnant mice were obtained from The Jackson Laboratory. Cultures were prepared from embryonic day (E) 14.5 cerebral tissues as described (Zhao et al., Cell Death Differ 2019, 26:1600-1614). Pregnant mice were killed by fast cervical dislocation, embryos and embryo brains were removed, and the cerebral hemisphere was extracted in sterile Hank's balanced saline solution (HBSS). Brain tissues were incubated in 0.25% trypsin-EDTA for 30 min at 37° C.and then transferred to DMEM containing 10% fetal bovine serum (DMEM+). The tissues were transferred to neurobasal (NB) medium containing B27 supplements, 2 mM L-glutamine, antibiotics and antimycotics (Gibco), and 1 mM HEPES and dissociated by trituration using a fire-polished Pasteur pipet. The dissociated cells were seeded into polyethyleneimine-coated plastic culture dishes at a density of 60,000 cells/cm^2 and cultured in the same B27-containing NB medium. Experiments were started 5 days later.
HCQ treatment: Treatment with hydroxychloroquine Sulfate (Selleckchem, Catalog No.S4430) was performed at 50 μM concentration. […]
Statistical analysis: Digitized images were obtained, processed, and quantified with ImageLab version 6.1 (BioRad Laboratories).

Sequence of STAT3 (P42227 whole entry): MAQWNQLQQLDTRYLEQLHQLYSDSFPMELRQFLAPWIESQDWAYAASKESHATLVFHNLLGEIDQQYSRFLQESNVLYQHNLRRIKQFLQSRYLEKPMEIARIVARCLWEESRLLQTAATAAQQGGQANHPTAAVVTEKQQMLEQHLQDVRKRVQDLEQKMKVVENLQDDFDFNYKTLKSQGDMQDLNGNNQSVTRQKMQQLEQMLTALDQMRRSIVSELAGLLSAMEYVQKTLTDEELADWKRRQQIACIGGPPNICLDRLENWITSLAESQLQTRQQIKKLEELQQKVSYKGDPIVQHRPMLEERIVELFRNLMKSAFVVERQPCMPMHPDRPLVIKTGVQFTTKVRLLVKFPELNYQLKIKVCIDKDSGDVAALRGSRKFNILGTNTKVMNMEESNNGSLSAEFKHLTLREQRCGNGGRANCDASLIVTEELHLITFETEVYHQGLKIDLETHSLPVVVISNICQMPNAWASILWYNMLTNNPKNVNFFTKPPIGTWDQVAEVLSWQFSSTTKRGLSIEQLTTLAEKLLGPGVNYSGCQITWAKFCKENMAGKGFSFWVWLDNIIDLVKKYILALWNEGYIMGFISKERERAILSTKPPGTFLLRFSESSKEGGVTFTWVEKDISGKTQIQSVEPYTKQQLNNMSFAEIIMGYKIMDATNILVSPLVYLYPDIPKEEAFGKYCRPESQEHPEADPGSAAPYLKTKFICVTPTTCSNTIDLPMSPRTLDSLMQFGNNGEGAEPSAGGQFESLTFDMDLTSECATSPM

Regarding `CCN(CCO)CCCC(C)Nc1ccnc2cc(Cl)ccc12` (centres unmarked) [HCQ, hydroxychloroquine], in data set [1] (2.5 μM, 25 μM, LPS), the IL-1b result is recorded as “dose dependent (2.5 μM<25 μM) reduction”, the IL-6 entry is recorded as “dose dependent (2.5 μM<25 μM) reduction”, the IL-10 result is “dose dependent (2.5 μM<25 μM) reduction” and the IL-12p70 entry is “dose dependent (2.5 μM<25 μM) reduction”. Besides, the TNF-alpha secretion result in data set [1] (25 μM, LPS) is on record as “reduction”. The cell viability entry in data set [1] (HCQ in LPS assay) is listed as “without any adverse effects on cell viability”. In addition, the “microglial uptake of Aβ1-42 into acidic cellular compartments” value with BV-2 cells is on record as “enhances”. Moreover, the “lower risk of ADRD” value in data set [2] (Analysis 1, as-treated, vs MTX initiators) was determined as 8%. In addition, the “lower risk of ADRD” value in data set [2] (Analysis 2, as-started, 6-month induction period) was found to be 13%. Besides, the “lower risk of ADRD” value in data set [2] (Analysis 3, 6-month symptom to claims period) worked out at 16%. The “cumulative incidence of ADRD” value in data set [2] (after approximately 2 years of treatment, compared to MTX, all four analyses) is listed as “lower cumulative incidence”. Also, the “lowering of incident AD” value in data set [2] (relative to methotrexate, across analyses) is 8-16%. On STAT3, the “p-STAT3 (Tyr705 and Ser727)” value is given as “reduced”; the “total STAT3” value is “without alteration”.

The values are drawn from patent publication US20240269128A1, “COMPOUNDS FOR TREATING OR PREVENTING ALZHEIMER'S DISEASE” (THE UNITED STATES OF AMERICA, as represented by the …, priority 2021, published 2024).
